This note sets out measurements from patent US11345696B2, “Compounds and methods of treating or ameliorating an IL-1R-mediated disease or disorder using same” (DREXEL UNIVERSITY, priority 2014, dated 2022).

Test [1] concerns SSc fibroblasts. Nature of the test: Total collagen (hydroxyproline) in culture media of SSc fibroblasts. The settings on record: for total collagen secretion into the culture media as measured by hydroxyproline: SSc dermal fibroblasts, 48 h, 100 μM or 10 μM compound (FIG. 5); for blocking collagen synthesis: in vitro, fibroblasts derived from scleroderma patients. The class given is cell-based. How it is done:
FIG. 5 is a set of graphs illustrating target validation studies. […] SSc dermal fibroblasts were treated for 48 h with 100 μM or 10 μM of compound, then media was collected and total collagen was measured by hydroxyproline. Samples were tested in triplicate across different patient samples and expressed as the mean±SEM (n=4). *p<0.0001, **p=0.02.
SSc fibroblasts were treated for 48 h with 1 nM compound, and then culture media was recovered and hydroxyproline was measured. Samples were tested in triplicate across different patient samples and expressed as the mean±SEM (n=3 independent patient samples).
SSc fibroblasts were cultured with selected molecules of the invention, and total collagen synthesis was assessed with hydroxyproline. […] KA862 and KA494 were selected for further in vitro evaluation.

The test system of test [2] is normal fibroblasts stimulated with bleomycin. In words: Bleomycin induced fibrosis in vitro model: normal fibroblasts stimulated with bleomycin, hydroxyproline in culture media. In kind it is cell-based. The settings on record: for IC50: Fibroblast, decreasing concentrations of compound against 10 μM bleomycin, 48 h, hydroxyproline in culture media (FIG. 9); for blocking collagen synthesis: in vitro, normal fibroblasts stimulated with 10 μM bleomycin. Here is the method: FIG. 7 is a set of bar graphs illustrating the finding that compounds of the invention are effective against bleomycin induced fibrosis in an in vitro model. Top graph: normal fibroblasts stimulated with bleomycin (Bleo)+IL-1RA (n=3); bottom graph: normal fibroblasts stimulated with Bleo+KA862 (n=3).
FIG. 9 is a set of graphs illustrating the IC50 determination for KA521, KA222, KA306, and KA695. Decreasing concentrations of compound were tested against 10 μM bleomycin for 48 h and hydroxyproline measured in the culture media.
Without wishing to be limited by any theory, designing a focused screening library allows for the identification of analogs with favorable drug-like properties and binding efficacy against IL-1R. Compounds of interest may be tested in vitro using patient-derived scleroderma fibroblasts, normal fibroblasts treated with bleomycin to increase collagen synthesis, and in vivo in scleroderma animal models.
FIG. 7 illustrates the finding that compounds of the invention are effective against bleomycin induced fibrosis. Normal fibroblasts were treated with bleomycin and either IL-1RA or a compound of the invention, so as to inhibit collagen.

Each structure is given as a SMILES string.

For `O=C(CN(Cc1ccc2c(c1)OCO2)S(=O)(=O)c1ccc(S(=O)(=O)NC2CCCC2)cc1)Nc1ccccc1` [KA199, N^2-(1,3-benzodioxol-5-ylmethyl)-N^2-{[4-(cyclopentylsulfamoyl)phenyl]sulfonyl}-N-phenyl glycinamide], in test [1], the “total collagen secretion into the culture media as measured by hydroxyproline” value is reported as “effective at reducing total collagen secretion”.
As to `Cc1nn(-c2ccccc2)c2c1C(c1c(O)ccc3ccccc13)C(C#N)=C(N)O2` (stereo not drawn) [KA222, 6-amino-4-(2-hydroxynaphthalen-1-yl)-3-methyl-1-phenyl-1,4-dihydropyrano[2,3-c]pyrazole-5-carbonitrile], the IC50 in test [2] is approximately 1 nM.
The same measure, in the same setting: the same measure for `COC(=O)C1=C(C)NC2=C(C(=O)CC(c3ccc(OC)c(OC)c3)C2)C1c1cccc2ccccc12` (stereo not drawn) [KA306, methyl 7-(3,4-dimethoxyphenyl)-2-methyl-4-(naphthalen-1-yl)-5-oxo-1,4,5,6,7,8-hexahydroquinoline-3-carboxylate]: approximately 1 nM.
Regarding `O=C(C[S+]([O-])CC(=O)N(CC(=O)NC1CCCCC1)c1cccc2ccccc12)Nc1ccc(F)cc1` (stereo not drawn) [KA494, N-(2-(cyclohexylamino)-2-oxoethyl)-2-((2-((4-fluorophenyl)amino)-2-oxoethyl)sulfinyl)-N-(naphthalen-1-yl)acetamide], in test [1], the “total collagen secretion into the culture media as measured by hydroxyproline” value is “effective at reducing total collagen secretion” and the blocking collagen synthesis entry is reported as “efficacious in blocking collagen synthesis”. The blocking collagen synthesis entry in test [2] is given as “efficacious in blocking collagen synthesis”.
In the case of `COc1cccc(NC(=O)Cn2nc(-c3ccncc3)nc2SCC(=O)NC2CCCC2)c1` [KA529, (2-[5-{[2-(cyclopentylamino)-2-oxoethyl]sulfanyl}-3-(4-pyridinyl)-1H-1,2,4-triazol-1-yl]-N-(3-methoxyphenyl)acetamide)], the “total collagen secretion into the culture media as measured by hydroxyproline” value in test [1] was “effective at reducing total collagen secretion”.
Regarding `O=C(C[S+]([O-])CC(=O)N(CC(=O)NC1CCCC1)Cc1ccccc1Cl)Nc1ccc2c(c1)OCO2` (stereo not drawn) [KA680, (N^2-({[2-(1,3-benzodioxol-5-ylamino)-2-oxoethyl]sulfinyl}acetyl)-N^2-(2-chlorobenzyl)-N-cyclopentylglycinamide)], the “total collagen secretion into the culture media as measured by hydroxyproline” value in test [1] is “effective at reducing total collagen secretion”.
In the case of `COCCOC(=O)C1=C(C)NC2=C(C(=O)CCC2)C1c1cccc2ccccc12` (stereo not drawn) [KA695, 2-methoxyethyl 2-methyl-4-(naphthalen-1-yl)-5-oxo-1,4,5,6,7,8-hexahydroquinoline-3-carboxylate], the IC50 in test [2] is approximately 1 nM.
Take `O=C(CSc1nnc(Cc2csc(Nc3cccc(Cl)c3)n2)n1Cc1ccco1)OC1CCCCC1` [KA862, cyclohexyl 2-((5-((2-((3-chlorophenyl)amino)thiazol-4-yl)methyl)-4-(furan-2-ylmethyl)-4H-1,2,4-triazol-3-yl)thio)acetate]: in test [1], the “total collagen secretion into the culture media as measured by hydroxyproline” value is on record as “effective at reducing total collagen secretion” and the blocking collagen synthesis entry is “efficacious in blocking collagen synthesis”. For the same compound, in test [2], the blocking collagen synthesis entry is “efficacious in blocking collagen synthesis”.

By IC50 is commonly meant the midpoint of a concentration-inhibition curve. A higher IC50 goes with weaker potency in that assay.
